In PubChem BioAssay (NCI):
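Assay format: 96-well plates, 48-hour exposure. GI50 marks 50% less growth. TGI: total growth inhibition.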

What was measured:
Test in all cases: DTP human tumour cell line panel, 48 h
MALME-3M melanoma = test system: MALME-3M melanoma
SK-MEL-28 melanoma = test system: SK-MEL-28 melanoma
SNB-19 CNS = test system: SNB-19 CNS
CAKI-1 renal = test system: CAKI-1 renal
PC-3 prostate = test system: PC-3 prostate
SN12C renal = test system: SN12C renal
MOLT-4 leukemia = test system: MOLT-4 leukemia
SNB-75 CNS = test system: SNB-75 CNS
KM12 colon = test system: KM12 colon
MDA-MB-231 breast = test system: MDA-MB-231 breast
SK-MEL-2 melanoma = test system: SK-MEL-2 melanoma
HCT-116 colon = test system: HCT-116 colon
MDA-MB-435 = test system: MDA-MB-435
A498 renal = test system: A498 renal
HCT-15 colon = test system: HCT-15 colon
RXF 393 renal = test system: RXF 393 renal
OVCAR-3 ovarian = test system: OVCAR-3 ovarian
TK-10 renal = test system: TK-10 renal
HOP-62 NSCLC = test system: HOP-62 NSCLC
CCRF-CEM leukemia = test system: CCRF-CEM leukemia
DU-145 prostate = test system: DU-145 prostate
SF-295 CNS = test system: SF-295 CNS
MCF7 breast = test system: MCF7 breast
UO-31 renal = test system: UO-31 renal
786-0 renal = test system: 786-0 renal
SR leukemia = test system: SR leukemia
U251 CNS = test system: U251 CNS
NCI-H522 lung = test system: NCI-H522 lung
COLO 205 colon = test system: COLO 205 colon
NCI-H226 lung = test system: NCI-H226 lung
EKVX NSCLC = test system: EKVX NSCLC
NCI-H460 lung = test system: NCI-H460 lung
SW-620 colon = test system: SW-620 colon
T-47D breast = test system: T-47D breast
SK-MEL-5 melanoma = test system: SK-MEL-5 melanoma
HT29 colon = test system: HT29 colon
HS 578T breast = test system: HS 578T breast
BT-549 breast = test system: BT-549 breast
SF-539 CNS = test system: SF-539 CNS
OVCAR-8 ovarian = test system: OVCAR-8 ovarian
NCI/ADR-RES ovarian = test system: NCI/ADR-RES ovarian
OVCAR-5 ovarian = test system: OVCAR-5 ovarian
LOX IMVI melanoma = test system: LOX IMVI melanoma
M14 melanoma = test system: M14 melanoma
UACC-62 melanoma = test system: UACC-62 melanoma
IGROV1 ovarian = test system: IGROV1 ovarian
HOP-92 NSCLC = test system: HOP-92 NSCLC
A549 NSCLC = test system: A549 NSCLC
OVCAR-4 ovarian = test system: OVCAR-4 ovarian
MDA-MB-468 breast = test system: MDA-MB-468 breast
UACC-257 melanoma = test system: UACC-257 melanoma
HL-60(TB) leukemia = test system: HL-60(TB) leukemia
SF-268 CNS = test system: SF-268 CNS
NCI-H23 lung = test system: NCI-H23 lung
HCC-2998 colon = test system: HCC-2998 colon
RPMI-8226 leukemia = test system: RPMI-8226 leukemia
SK-OV-3 ovarian = test system: SK-OV-3 ovarian
ACHN renal = test system: ACHN renal
K-562 leukemia = test system: K-562 leukemia

O=c1ccc(Cn2c(C(F)(F)F)cc3c(Cl)ncnc32)c[nH]1
GI50 (MALME-3M melanoma): 15.9 µM | TGI (MALME-3M melanoma): 35 µM | GI50 (SK-MEL-28 melanoma): 3.9 µM | TGI (SK-MEL-28 melanoma): 18.7 µM | GI50 (SNB-19 CNS): 20.7 µM | TGI (SNB-19 CNS): 59.4 µM | GI50 (CAKI-1 renal): 23.5 µM | TGI (CAKI-1 renal): 99.4 µM | GI50 (PC-3 prostate): 17.1 µM | TGI (PC-3 prostate): 55.8 µM | GI50 (SN12C renal): 6.42 µM | TGI (SN12C renal): 23.4 µM | GI50 (MOLT-4 leukemia): 3.21 µM | TGI (MOLT-4 leukemia): 17.2 µM | GI50 (SNB-75 CNS): 10.7 µM | TGI (SNB-75 CNS): 23.2 µM | GI50 (KM12 colon): 17.9 µM | TGI (KM12 colon): 40.3 µM | GI50 (MDA-MB-231 breast): 4.65 µM | TGI (MDA-MB-231 breast): 18.2 µM | GI50 (SK-MEL-2 melanoma): 16.9 µM | TGI (SK-MEL-2 melanoma): 32.6 µM | GI50 (HCT-116 colon): 3.51 µM | TGI (HCT-116 colon): 29.2 µM | GI50 (MDA-MB-435): 4.69 µM | TGI (MDA-MB-435): 20.5 µM | GI50 (A498 renal): > 100 µM | TGI (A498 renal): > 100 µM | GI50 (HCT-15 colon): 2.93 µM | TGI (HCT-15 colon): 14.9 µM | GI50 (RXF 393 renal): 11.2 µM | TGI (RXF 393 renal): 32.1 µM | GI50 (OVCAR-3 ovarian): 14.9 µM | TGI (OVCAR-3 ovarian): 32.8 µM | GI50 (TK-10 renal): > 100 µM | TGI (TK-10 renal): > 100 µM | GI50 (HOP-62 NSCLC): 46.7 µM | TGI (HOP-62 NSCLC): > 100 µM | GI50 (CCRF-CEM leukemia): 4.32 µM | TGI (CCRF-CEM leukemia): > 100 µM | GI50 (DU-145 prostate): 38.7 µM | TGI (DU-145 prostate): > 100 µM | GI50 (SF-295 CNS): 28.2 µM | TGI (SF-295 CNS): > 100 µM | GI50 (MCF7 breast): 21.1 µM | TGI (MCF7 breast): 67.9 µM | GI50 (UO-31 renal): 5.05 µM | TGI (UO-31 renal): 19.2 µM | GI50 (786-0 renal): 43.5 µM | TGI (786-0 renal): > 100 µM | GI50 (SR leukemia): 2.73 µM | TGI (SR leukemia): 11.8 µM | GI50 (U251 CNS): 22.5 µM | TGI (U251 CNS): 69.2 µM | GI50 (NCI-H522 lung): 2.05 µM | TGI (NCI-H522 lung): 4.85 µM | GI50 (COLO 205 colon): 86.6 µM | TGI (COLO 205 colon): > 100 µM | GI50 (NCI-H226 lung): 31.7 µM | TGI (NCI-H226 lung): > 100 µM | GI50 (EKVX NSCLC): 14.2 µM | TGI (EKVX NSCLC): 36 µM | GI50 (NCI-H460 lung): 12 µM | TGI (NCI-H460 lung): 36.2 µM | GI50 (SW-620 colon): 5.55 µM | TGI (SW-620 colon): 26.3 µM | GI50 (T-47D breast): 30.3 µM | TGI (T-47D breast): > 100 µM | GI50 (SK-MEL-5 melanoma): 4.06 µM | TGI (SK-MEL-5 melanoma): 15 µM | GI50 (HT29 colon): 29 µM | TGI (HT29 colon): > 100 µM | GI50 (HS 578T breast): 8.76 µM | TGI (HS 578T breast): 50.4 µM | GI50 (BT-549 breast): 14 µM | TGI (BT-549 breast): 28.8 µM | GI50 (SF-539 CNS): 17.3 µM | TGI (SF-539 CNS): 40.9 µM | GI50 (OVCAR-8 ovarian): 3.51 µM | TGI (OVCAR-8 ovarian): 17.3 µM | GI50 (NCI/ADR-RES ovarian): 14.2 µM | TGI (NCI/ADR-RES ovarian): 40.3 µM | GI50 (OVCAR-5 ovarian): 61.7 µM | TGI (OVCAR-5 ovarian): > 100 µM | GI50 (LOX IMVI melanoma): 1.65 µM | TGI (LOX IMVI melanoma): 3.11 µM | GI50 (M14 melanoma): 4.08 µM | TGI (M14 melanoma): 22.1 µM | GI50 (UACC-62 melanoma): 5.55 µM | TGI (UACC-62 melanoma): 19.7 µM | GI50 (IGROV1 ovarian): 2.29 µM | TGI (IGROV1 ovarian): 6.09 µM | GI50 (HOP-92 NSCLC): 23 µM | TGI (HOP-92 NSCLC): > 100 µM | GI50 (A549 NSCLC): 64.8 µM | TGI (A549 NSCLC): > 100 µM | GI50 (OVCAR-4 ovarian): 17.9 µM | TGI (OVCAR-4 ovarian): 44.6 µM | GI50 (MDA-MB-468 breast): 2.1 µM | TGI (MDA-MB-468 breast): 5.73 µM | GI50 (UACC-257 melanoma): 3.18 µM | TGI (UACC-257 melanoma): 12.9 µM | GI50 (HL-60(TB) leukemia): 2.1 µM | TGI (HL-60(TB) leukemia): 5.97 µM | GI50 (SF-268 CNS): 10.6 µM | TGI (SF-268 CNS): 28.9 µM | GI50 (NCI-H23 lung): 3.97 µM | TGI (NCI-H23 lung): 18.4 µM | GI50 (HCC-2998 colon): 2.9 µM | TGI (HCC-2998 colon): 10.1 µM | GI50 (RPMI-8226 leukemia): 23 µM | TGI (RPMI-8226 leukemia): > 100 µM | GI50 (SK-OV-3 ovarian): 44.3 µM | TGI (SK-OV-3 ovarian): > 100 µM | GI50 (ACHN renal): 22.2 µM | TGI (ACHN renal): > 100 µM | GI50 (K-562 leukemia): 2.83 µM | TGI (K-562 leukemia): > 100 µM
